Experimental data published in PubChem BioAssay AID248 (DTP/NCI, 2004).
Values joined by “and” are separate entries in the source; they are usually repeats but may differ in a detail not shown here. Equal values may be shown once. Toxic doses and inconclusive results are not listed. No stated cut-off is given here; in the data, active means T/C of 150% or more; inactive means T/C below 125%.

Tested on: L1210 leukemia ip in BDF1 mice, survival T/C
Test: NCI In Vivo Anticancer Drug Screen. Data for tumor model L1210 Leukemia (intraperitoneal) in B6D2F1 (BDF1) mice
Conditions: higher = longer survival
In short: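 Transplantable tumor model; survival measured in treated vs vehicle control mice. Value = treated/control.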

Measured: T/C

CSc1ncnc2nc[nH]c12
inactive: endpoint: mean survival time, dose: 1.5 mg/kg/injection, schedule: Q01DX Z (ip), vehicle: saline 95 % of control | endpoint: mean survival time, dose: 3.0 mg/kg/injection, schedule: Q01DX Z (ip), vehicle: saline 95 % of control | endpoint: mean survival time, dose: 6.0 mg/kg/injection, schedule: Q01DX Z (ip), vehicle: saline 103 % of control | endpoint: mean survival time, dose: 12.0 mg/kg/injection, schedule: Q01DX Z (ip), vehicle: saline 95 % of control | endpoint: mean survival time, dose: 12.5 mg/kg/injection, schedule: Q#A X Z (ip), vehicle: saline 108 % of control | endpoint: mean survival time, dose: 25.0 mg/kg/injection, schedule: Q01DX006 (iv), vehicle: saline 103 % of control | endpoint: mean survival time, dose: 25.0 mg/kg/injection, schedule: Q01DX009 (ip), vehicle: saline 97 % of control | endpoint: mean survival time, dose: 25.0 mg/kg/injection, schedule: Q01DX010 (ip), vehicle: saline 92 % of control | endpoint: mean survival time, dose: 25.0 mg/kg/injection, schedule: Q01DX Z (im), vehicle: methylcellulose (MC) 94 % of control | endpoint: mean survival time, dose: 25.0 mg/kg/injection, schedule: Q01DX Z (ip), vehicle: saline 101 % of control | endpoint: mean survival time, dose: 25.0 mg/kg/injection, schedule: Q01DX Z (sc), vehicle: methylcellulose (MC) 117 % of control | endpoint: mean survival time, dose: 25.0 mg/kg/injection, schedule: Q#A X Z (ip), vehicle: saline 103 % of control | endpoint: mean survival time, dose: 30.0 mg/kg/injection, schedule: Q01DX015 (ip), vehicle: carboxymethylcellulose (CMC) 114 % of control | endpoint: mean survival time, dose: 45.0 mg/kg/injection, schedule: Q01DX015 (ip), vehicle: carboxymethylcellulose (CMC) 104 % of control | endpoint: mean survival time, dose: 50.0 mg/kg/injection, schedule: Q01DX006 (iv), vehicle: saline 100 % of control | endpoint: mean survival time, dose: 50.0 mg/kg/injection, schedule: Q01DX009 (ip), vehicle: saline 102 % of control and 104 % of control | endpoint: mean survival time, dose: 50.0 mg/kg/injection, schedule: Q01DX010 (ip), vehicle: saline 89 % of control | endpoint: mean survival time, dose: 50.0 mg/kg/injection, schedule: Q01DX Z (im), vehicle: methylcellulose (MC) 107 % of control | endpoint: mean survival time, dose: 50.0 mg/kg/injection, schedule: Q01DX Z (ip), vehicle: saline 105 % of control | endpoint: mean survival time, dose: 50.0 mg/kg/injection, schedule: Q01DX Z (sc), vehicle: methylcellulose (MC) 96 % of control | endpoint: mean survival time, dose: 50.0 mg/kg/injection, schedule: Q#A X Z (ip), vehicle: saline 112 % of control | endpoint: mean survival time, dose: 60.0 mg/kg/injection, schedule: Q01DX015 (ip), vehicle: carboxymethylcellulose (CMC) 114 % of control | endpoint: mean survival time, dose: 75.0 mg/kg/injection, schedule: Q01DX015 (ip), vehicle: carboxymethylcellulose (CMC) 108 % of control | endpoint: mean survival time, dose: 75.0 mg/kg/injection, schedule: Q03DX Z (ip), vehicle: saline 100 % of control | endpoint: mean survival time, dose: 90.0 mg/kg/injection, schedule: Q01DX015 (ip), vehicle: carboxymethylcellulose (CMC) 109 % of control | endpoint: mean survival time, dose: 100.0 mg/kg/injection, schedule: Q01DX006 (iv), vehicle: saline 108 % of control | endpoint: mean survival time, dose: 100.0 mg/kg/injection, schedule: Q01DX009 (ip), vehicle: saline 102 % of control and 103 % of control | endpoint: mean survival time, dose: 100.0 mg/kg/injection, schedule: Q01DX010 (ip), vehicle: saline 95 % of control and 87 % of control | endpoint: mean survival time, dose: 100.0 mg/kg/injection, schedule: Q01DX Z (im), vehicle: methylcellulose (MC) 89 % of control | endpoint: mean survival time, dose: 100.0 mg/kg/injection, schedule: Q01DX Z (ip), vehicle: saline 111 % of control | endpoint: mean survival time, dose: 100.0 mg/kg/injection, schedule: Q01DX Z (sc), vehicle: methylcellulose (MC) 113 % of control | endpoint: mean survival time, dose: 120.0 mg/kg/injection, schedule: Q01DX001 (ip), vehicle: carboxymethylcellulose (CMC) 95 % of control and 100 % of control | endpoint: mean survival time, dose: 125.0 mg/kg/injection, schedule: Q01DX001 (ip), vehicle: methylcellulose (MC) 105 % of control and 108 % of control | endpoint: mean survival time, dose: 150.0 mg/kg/injection, schedule: Q03DX Z (ip), vehicle: saline 101 % of control | endpoint: mean survival time, dose: 180.0 mg/kg/injection, schedule: Q01DX001 (ip), vehicle: carboxymethylcellulose (CMC) 102 % of control and 106 % of control | endpoint: mean survival time, dose: 200.0 mg/kg/injection, schedule: Q01DX006 (iv), vehicle: saline 97 % of control | endpoint: mean survival time, dose: 200.0 mg/kg/injection, schedule: Q01DX009 (ip), vehicle: saline 97 % of control and 100 % of control | endpoint: mean survival time, dose: 200.0 mg/kg/injection, schedule: Q01DX010 (ip), vehicle: saline 105 % of control | endpoint: mean survival time, dose: 200.0 mg/kg/injection, schedule: Q01DX Z (im), vehicle: methylcellulose (MC) 102 % of control | endpoint: mean survival time, dose: 200.0 mg/kg/injection, schedule: Q01DX Z (ip), vehicle: saline 105 % of control | endpoint: mean survival time, dose: 200.0 mg/kg/injection, schedule: Q01DX Z (sc), vehicle: methylcellulose (MC) 112 % of control | endpoint: mean survival time, dose: 250.0 mg/kg/injection, schedule: Q01DX001 (ip), vehicle: methylcellulose (MC) 106 % of control and 108 % of control | endpoint: mean survival time, dose: 270.0 mg/kg/injection, schedule: Q01DX001 (ip), vehicle: carboxymethylcellulose (CMC) 103 % of control and 117 % of control | endpoint: mean survival time, dose: 300.0 mg/kg/injection, schedule: Q03DX Z (ip), vehicle: saline 100 % of control | endpoint: mean survival time, dose: 500.0 mg/kg/injection, schedule: Q01DX001 (ip), vehicle: methylcellulose (MC) 116 % of control | endpoint: mean survival time, dose: 1000.0 mg/kg/injection, schedule: Q01DX001 (ip), vehicle: methylcellulose (MC) 112 % of control | endpoint: median survival time, dose: 25.0 mg/kg/injection, schedule: Q01DX009 (ip), vehicle: saline 100 % of control | endpoint: median survival time, dose: 50.0 mg/kg/injection, schedule: Q01DX009 (ip), vehicle: saline 95 % of control and 106 % of control | endpoint: median survival time, dose: 100.0 mg/kg/injection, schedule: Q01DX009 (ip), vehicle: saline 100 % of control and 106 % of control | endpoint: median survival time, dose: 200.0 mg/kg/injection, schedule: Q01DX009 (ip), vehicle: saline 100 % of control and 115 % of control

NC(N)=N/N=C/NN/C=N/N=C(N)N
inactive: endpoint: mean survival time, dose: 15.0 mg/kg/injection, schedule: Q01DX Z (ip), vehicle: saline 93 % of control | endpoint: mean survival time, dose: 30.0 mg/kg/injection, schedule: Q01DX Z (ip), vehicle: saline 104 % of control | endpoint: mean survival time, dose: 60.0 mg/kg/injection, schedule: Q01DX Z (ip), vehicle: saline 115 % of control | endpoint: mean survival time, dose: 120.0 mg/kg/injection, schedule: Q01DX Z (oral), vehicle: saline 95 % of control

Cc1ccc(N=Cc2ccc([N+](=O)[O-])s2)cc1Cl
inactive: endpoint: mean survival time, dose: 100.0 mg/kg/injection, schedule: Q04DX003 (ip), vehicle: Klucel (hydroxypropylcellulose) (HPC) 91 % of control | endpoint: mean survival time, dose: 200.0 mg/kg/injection, schedule: Q04DX003 (ip), vehicle: Klucel (hydroxypropylcellulose) (HPC) 89 % of control

CC(=O)OC1CCC2(C)C(=CCC3C2CCC2(C)c4c(-c5ccccc5)nn(-c5ccccc5)c4CC32)C1 (stereo not given)
inactive: endpoint: mean survival time, dose: 12.5 mg/kg/injection, schedule: Q04DX002 (ip), vehicle: Klucel (hydroxypropylcellulose) (HPC) 96 % of control | endpoint: mean survival time, dose: 25.0 mg/kg/injection, schedule: Q04DX002 (ip), vehicle: Klucel (hydroxypropylcellulose) (HPC) 96 % of control | endpoint: mean survival time, dose: 50.0 mg/kg/injection, schedule: Q04DX002 (ip), vehicle: Klucel (hydroxypropylcellulose) (HPC) 101 % of control

O=[N+]([O-])c1ccc(N/N=C2\CCCc3c2ccc2ccccc32)c([N+](=O)[O-])c1
inactive: endpoint: mean survival time, dose: 100.0 mg/kg/injection, schedule: Q01DX001 (ip), vehicle: saline 97 % of control | endpoint: mean survival time, dose: 200.0 mg/kg/injection, schedule: Q01DX001 (ip), vehicle: saline 92 % of control | endpoint: mean survival time, dose: 400.0 mg/kg/injection, schedule: Q01DX001 (ip), vehicle: saline 103 % of control

CN1CCc2ccc(Oc3cccc4c3CCN(C)C4)cc2C1
inactive: endpoint: mean survival time, dose: 75.0 mg/kg/injection, schedule: Q01DX001 (ip), vehicle: other 112 % of control | endpoint: mean survival time, dose: 150.0 mg/kg/injection, schedule: Q01DX001 (ip), vehicle: other 92 % of control

CC1(C[N+](=O)[O-])CCCC(=O)C1 (stereo not given)
inactive: endpoint: mean survival time, dose: 75.0 mg/kg/injection, schedule: Q01DX001 (ip), vehicle: saline 98 % of control

O=C(Nc1cccc(C(F)(F)F)c1)Oc1ccc(F)cc1Cl
inactive: endpoint: mean survival time, dose: 25.0 mg/kg/injection, schedule: Q01DX009 (ip), vehicle: gum acacia 100 % of control | endpoint: mean survival time, dose: 50.0 mg/kg/injection, schedule: Q01DX009 (ip), vehicle: gum acacia 98 % of control | endpoint: mean survival time, dose: 100.0 mg/kg/injection, schedule: Q01DX009 (ip), vehicle: gum acacia 88 % of control

S=c1[nH]ncn1-c1ccccc1
inactive: endpoint: mean survival time, dose: 100.0 mg/kg/injection, schedule: Q01DX009 (ip), vehicle: Klucel (hydroxypropylcellulose) (HPC) 92 % of control | endpoint: mean survival time, dose: 200.0 mg/kg/injection, schedule: Q01DX009 (ip), vehicle: Klucel (hydroxypropylcellulose) (HPC) 93 % of control
